Measurements reported in PMC10704857 (Journal of medicinal chemistry, 2021).

Experiments:
[1] = biological target: RTA depurination of yeast ribosomes (Ricinus communis, UniProt P02879); assay type: biochemical
[2] = test system: Stx2a holotoxin in Vero cells; assay type: cell-based
[3] = test system: cisplatin toxicity; assay type: cell-based

SMILES | fold improved IC50 relative to CC10501 [1] | inhibition of depurination by Stx2a [2] | effect on toxicity of cisplatin [3] | protection of yeast ribosomes from depurination [1]
Cc1ccccc1-c1ccc(C(=O)O)s1 [RU-NT-70, 5-(o-Tolyl)thiophene-2-carboxylic Acid] | 10 fold | – | – | –
Cc1cccc(C)c1-c1ccc(C(=O)O)s1 [RU-NT-93, 5-(2,6-Dimethylphenyl)thiophene-2-carboxylic Acid] | – | did not protect | did not alter | –
CCc1ccccc1-c1ccc(C(=O)O)s1 [RU-NT-102, 5-(2-Ethylphenyl)thiophene-2-carboxylic Acid] | 12 fold | did not protect | did not alter | –
O=C(O)c1ccc(-c2cccc3c2OCC3)s1 [RU-NT-105, 5-(2,3-Dihydrobenzofuran-7-yl)thiophene-2-carboxylic Acid] | – | – | – | not active
